Experimental data taken from patent publication US20260364088A1, “TASL MIMICKING MOLECULES AND APPLICATIONS THEREOF” (CEMM - FORSCHUNGSZENTRUM FÜR MOLEKULARE MEDIZIN GMBH, priority 2022, published 2026).

Tests used:
Assay type in all cases: cell-based
TASL-GFP (Homo sapiens) = test: TASL-GFP levels in HEK293T cells co-expressing SLC15A4 (flow cytometry, microscopy); conditions: HEK293T co-expressing SLC15A4, 10 µM, 24 h
Method: (§1) Cells transfected with TASL-V5 plasmid were stained for V5-tag and detected with deep red Alexa Fluor 647 secondary antibody to allow for selection in the presence of an mCherry reporter. Cells were measured either immediately after staining or in the case of live cells immediately after harvesting and washing with PBS. Data were acquired on a BD FACSCalibur (BD Biosciences) and analyzed with FlowJo software (version 10).
(§2) For live cell imaging cells were plated in PhenoPlate 96-well plates or Ibidi m-Slide 8 (Ibidi) wells at 16 k/well and incubated over-night. Then compounds were added, if indicated, and cells were imaged after 24 h of incubation. Cells were stained with LysoTracker Deep Red L12492 (ThermoFisher) and Hoechst 34580 (ThermoFisher). […] Images were analyzed with Fiji-ImageJ.
(§3) Encouraged by the fact that the chemical entity of the present invention was showing the desired behavior and specificity profile, it became important to better clarify the molecular basis of this uncommon mechanism of action, i.e interference with a highly specific protein interaction leading to degradation of a single complex component. The effect of dTASL1 on complex assembly was first monitored. […]

TASL-GFP = TASL-GFP (Homo sapiens, UniProt Q8N697); test: as above; conditions: HEK293T co-expressing SLC15A4, 10 µM, 24 h
Method: as §1, §2, §3

SLC15A4 = target: T1, SLC15A4 (Homo sapiens, UniProt Q8N697); test: Competition assay with V5-tagged N-terminal TASL fragments (V5 immunofluorescence); conditions: TASL-V5 fragments of first 94 and 193 amino acids; 10 mM dTASL1, 24 h
T1 construct: transient TASL-V5 N-terminal fragments 1-94 and 1-193 (C-terminal V5) as partner
Method: For staining of fixed cells, 12 k cells/well were seeded in tissue culture-treated PhenoPlate 96-well plates (PerkinElmer) and incubated over-night. Cells were transfected with TASL-V5 fragments the next day and subsequently TASL-V5 expression was induced by addition of 1 μg/ml doxycycline and […] dTASL1 or an equivalent volume of DMSO respectively. Compound and doxycycline were added at the same time, to allow dTASL1 to occupy SLC15A4 binding sites in advance of TASL binding. Cells were fixed after 24 h of incubation for 10 min with 4% formaldehyde in PBS and permeabilized and blocked with 0.2% Triton X-100 (Sigma) and 5% FBS in PBS for 1 h. Cells were stained overnight at 4 °C with a mouse anti V5 primary antibody (Invitrogen) in blocking solution. Cells were washed 3 time in PBS and stained for 1.5 h with fluorescently labelled goat anti mouse Alexa-568 (Invitrogen) secondary antibody. […]
as §3

[1] = test system: TNF production in human peripheral blood mononuclear cells (PBMCs); test: TNF ELISA, R848-stimulated PBMCs; conditions: bulk PBMCs, dTASL1 10 µM 24 h, R848 (5 μg/ml) 16 h, n=8
Excerpt: HEK293T cells and THP1 cells were purchased from ATCC, THP1 DUAL/ISRE reporter cell lines from Invivogen. CAL-1 cells were provided by T. Maeda (Nagasaki University). Cell lines—except for CAL-1—were authenticated by short tandem repeat profiling and regularly tested for mycoplasma contamination. Human primary PBMCs were isolated from the blood of anonymous healthy donors as well as SLE patients included in our biobank approved by the ethics committee of the Medical University of Vienna (EK2071/2020 and EK1075/2021). CD14^+ monocytes were purified by magnetic-activated cell sorting (Miltenyi Biotec, #130-050-201) according to the manufacturers protocol. Purity of CD14^+ cells ranged between 80.8% and 94.2% as determined by flow cytometry analysis. […]
Given that all evidence obtained seems to confirm the mechanistic precision of this chemical agent, any further consideration of assessing the therapeutic potential required evidence for activity in human primary cells relevant for SLE pathophysiology. The effect of dTASL1 in human peripheral blood mononuclear cells (PBMCs) was assessed. […] The impact of dTASL1 on TLR7/8 responses by directly monitoring IRF5 by confocal microscopy in B cells was assessed.

Chain of TASL-GFP (Homo sapiens) (Q8N697 whole entry): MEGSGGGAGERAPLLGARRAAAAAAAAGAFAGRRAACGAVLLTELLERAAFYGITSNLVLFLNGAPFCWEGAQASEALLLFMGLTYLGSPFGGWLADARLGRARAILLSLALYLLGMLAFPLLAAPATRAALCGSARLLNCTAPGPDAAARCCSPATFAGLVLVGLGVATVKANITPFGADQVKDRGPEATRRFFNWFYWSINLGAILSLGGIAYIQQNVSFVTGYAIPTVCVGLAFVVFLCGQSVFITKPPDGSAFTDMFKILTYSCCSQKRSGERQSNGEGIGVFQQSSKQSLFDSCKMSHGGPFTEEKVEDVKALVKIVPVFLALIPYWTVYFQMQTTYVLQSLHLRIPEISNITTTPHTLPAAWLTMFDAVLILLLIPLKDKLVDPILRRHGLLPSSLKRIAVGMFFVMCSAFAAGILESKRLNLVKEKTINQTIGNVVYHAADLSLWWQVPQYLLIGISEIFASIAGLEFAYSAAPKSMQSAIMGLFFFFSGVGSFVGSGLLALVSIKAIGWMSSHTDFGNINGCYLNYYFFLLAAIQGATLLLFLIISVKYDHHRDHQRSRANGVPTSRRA
Chain of TASL-GFP (Q8N697 whole entry): as above
T1 sequence (Q8N697 whole entry, the tested form may be a part): as the sequence (Q8N697 whole entry) above

TASL-GFP levels (TASL-GFP (Homo sapiens)): reduced TASL-GFP levels
Structure (SMILES): CCOc1ccc(-c2cc(C(=O)NCCCN3CCCCC3C)c3ccccc3n2)cc1 (stereo not shown) [dTASL1, 2-(4-ethoxyphenyl)-N-(3-(2-methylpiperidin-1-yl)propyl) quinoline-4-carboxamide]
TASL-GFP levels and localization by microscopy (TASL-GFP): a reduction of TASL-GFP levels accompanied by relocalisation | SLC15A4-localized V5 signal (SLC15A4): reduce SLC15A4-localized V5 signal for both short TASL portions | TNF production [1]: potently impaired TNF
